Experimental data taken from ChEMBL document CHEMBL4602681, “Quintaquinone, a Merosesquiterpene from the Yellow Sponge Verongula cf. rigida Esper” (J Nat Prod, 2020).

What was measured:
[1] = test system: HeLa; experiment: Antiproliferative activity against human HeLa cells assessed as reduction in cell viability after 72 hrs by sulforhodamine B assay; assay type: functional, cell-based
[2] = test system: MCF7; experiment: Antiproliferative activity against human MCF7 cells assessed as reduction in cell viability after 72 hrs by sulforhodamine B assay; assay type: functional, cell-based; details: MCF7, 72 h
[3] = Inhibition of steroid 5-alpha-reductase in human LNCAP cells assessed as reduction in 5- dihydrotestosterone formation incubated for 60 mins by LC-MS analysis; assay type: cell-based; details: 1 h
[4] = test system: PC-3; experiment: Antiproliferative activity against human PC3 cells assessed as reduction in cell viability by MTT assay; assay type: functional, cell-based
[5] = test system: LNCaP; experiment: Inhibition of steroid 5-alpha-reductase in human LNCAP cells assessed as reduction in 5- dihydrotestosterone formation at 100 uM incubated for 60 mins by LC-MS analysis relative to control; assay type: cell-based

| Structure (SMILES) | IC50 [1] | IC50 [2] | IC50 [3] | IC50 [4] | inhibition [5] |
| --- | --- | --- | --- | --- | --- |
| C=C1CCC[C@H]2[C@](C)(CC3=C(O)C(=O)C=C(NCCc4ccccc4)C3=O)[C@@H](C)CC[C@]12C | > 10 µM | > 10 µM | – | > 10 µM | < 50% |
| COC1=CC(=O)C(O)=C(C/C=C(\C)CC/C=C(\C)CCC=C(C)C)C1=O | > 10 µM | > 10 µM | – | > 10 µM | < 50% |
| C=C1CCC[C@H]2[C@](C)(CC3=C(O)C(=O)C(CCCCC(C)=O)=C(OC)C3=O)[C@@H](C)CC[C@]12C | > 10 µM | > 10 µM | – | > 10 µM | < 50% |
| CC(C)(C)NC(=O)[C@H]1CC[C@H]2[C@@H]3CC[C@H]4NC(=O)C=C[C@]4(C)[C@H]3CC[C@]12C [FINASTERIDE] | – | – | 760 nM | – | – |
| C=C1CCC[C@H]2[C@](C)(CC3=C(O)C(=O)C=C(NCC(C)C)C3=O)[C@@H](C)CC[C@]12C | > 10 µM | > 10 µM | – | > 10 µM | < 50% |

The next lines start with results.

| IC50 [1] | IC50 [2] | IC50 [3] | IC50 [4] | Structure (SMILES) | inhibition [5] |
| --- | --- | --- | --- | --- | --- |
| > 10 µM | > 10 µM | 730 nM | > 10 µM | COC1=CC(=O)C2=C(C[C@H]3[C@]4(C)CCCC(C)(C)[C@H]4CC[C@@]3(C)O2)C1=O | – |
| > 10 µM | > 10 µM | – | > 10 µM | COC(=O)c1cc(C[C@H]2C(C)=CC[C@H]3C(C)(C)CCC[C@]23C)c(O)c(O)c1O | < 50% |
| > 10 µM | > 10 µM | – | > 10 µM | C=C1CCC[C@H]2[C@](C)(CC3=C(O)C(=O)C=C(OC)C3=O)[C@@H](C)CC[C@]12C [ILIMAQUINONE] | < 50% |
| > 10 µM | > 10 µM | – | > 10 µM | COC(=O)c1cc(O)c(O)c(C[C@H]2C(C)=CC[C@H]3C(C)(C)CCC[C@]23C)c1 | < 50% |
| > 10 µM | > 10 µM | – | > 10 µM | C=C1CCC[C@H]2[C@](C)(CC3=C(O)C(=O)C=C(OC)C3=O)[C@@H](C)CC[C@@]12C | < 50% |
